Results on two molecules are retold here after patent US7410974B2, “Halogenated Quinazolinyl nitrofurans as antibacterial agents” (Ulysses Pharmaceutical Products, Inc., priority 2003, dated 2008).

Experiment [1] relates to B. catarrhalis ATCC 8176. Briefly: Minimal Bactericidal Concentration (MBC). Conditions: Moraxella catarrhalis, ATCC8176, 99.9% killing. The experiment is classed as cell-based, Branhamella (Moraxella) catarrhalis. The gist of the method:
(§1)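 After MIC reading, samples from each clear microtiter well (at least 5 wells without visible growth) were plated on TSA for viable counts. Plates were incubated at 35° C. for exactly 24 h and colonies counted.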

In the next experiment the test system is S. typhimurium ATCC14028. Put plainly: MIC broth microdilution (NCCLS). The class given is cell-based, Salmonella typhimurium. Conditions: Salmonella enterica; S. typhimurium ATCC14028; read-out: MIC. Here is the method:
(§2) Minimal Inhibitory Concentration (MIC) Determination. Bacteria (primary strain panel, TABLE 1). Susceptibility tests were performed following the recommendations from the National Committee for Clinical Standards (NCCLS). The MICs were determined by a broth microdilution technique using a final volume of 100 μl of cation-adjusted Mueller Hinton Broth (MHBCA) and a bacterial inoculum of 10^5-10^6 Colony Forming Units (CFU)/ml. The inocula were verified and precisely determined by applying 10-μl drops of 10-fold dilutions onto Triptic Soy Agar plates. The CFU were counted after an incubation of 24 h at 35° C. Any experiment showing an inoculum that was more or less than 10^5-10^6 CFU/ml was rejected. Control antibiotics and test compounds were prepared at a concentration equivalent to 2-fold the highest desired final concentration. Compounds were then diluted directly in the 96-well microtiter plates by serial 2-fold dilutions using a multichannel pipette. Microtiter plates were incubated during 24 h at 35° C. and growth was recorded by using a microtiterplate reader at 650 nm as well as by visual observation. The MIC was defined as the lowest concentration of compound yielding no visible growth. […] Fastidious bacteria. The medium used for Listeria monocytogenes, Neisseria meningitidis, and Campylobacter jejuni was MHBCA containing 2% laked horse blood. The medium used for Haemophilus influenzae and Branhamella (Moraxella) catarrhalis was HTM as recommended by the NCCLS. Cultures of these fastidious bacteria were incubated at 35° C. in a 5% CO2 atmosphere. […] The medium used for Bacteroides fragilis was Wilkins Chalgren broth and growth was allowed under an anaerobic atmosphere at 35° C. for 48 hours.

The test system of a further experiment is E. coli Ec022c (EIEC). Put plainly: MIC broth microdilution, E. coli strains. The class given is cell-based. The settings on record: Escherichia coli, pathotype EIEC. The method, then: as §2
(§3) Finally, compounds were also tested against populations of various clinical strains (antibiotic resistant strain panel, TABLE 1).

Experiment [2] has as its system E. coli d25-ALR-pen14 (O157:H7). Briefly: MIC broth microdilution, E. coli strains. The experiment is classed as cell-based. The settings on record: Escherichia coli. The method, then:
as §2, §3

Experiment [3] concerns E. coli d4-OLR-pen10 (O157:H7). Briefly: MIC broth microdilution, E. coli strains. The settings on record: Escherichia coli. The experiment is classed as cell-based. The method, then:
as §2, §3

The test system of another experiment is E. coli Ec118c (EIEC). Briefly: MIC broth microdilution, E. coli strains. The experiment is classed as cell-based. The settings on record: Escherichia coli, pathotype EIEC. The method, then:
as §2, §3

In a further experiment the test system is E. coli Ec027c (EIEC). Briefly: MIC broth microdilution, E. coli strains. The class given is cell-based. Conditions: Escherichia coli, pathotype EIEC. Here is the method:
as §2, §3

In the next experiment the test system is E. coli Ec117c (EIEC). Briefly: MIC broth microdilution, E. coli strains. The experiment is classed as cell-based. Conditions: Escherichia coli, pathotype EIEC. Here is the method: as §2, §3
Experiment [4] concerns E. coli ATCC 35150 (O157:H7). Put plainly: MIC broth microdilution, E. coli strains. The class given is cell-based. The settings on record: Escherichia coli, ATCC35150. Here is the method:
as §2, §3

The next experiment deals with E. coli Ec119c (EIEC). Put plainly: MIC broth microdilution, E. coli strains. The class given is cell-based. The settings on record: Escherichia coli, pathotype EIEC. Here is the method: as §2, §3
Experiment [5] concerns S. epidermidis ATCC 12228. Briefly: MIC broth microdilution (NCCLS). The experiment is classed as cell-based, Staphylococcus epidermidis. The settings on record: Staphylococcus epidermidis, ATCC12228; S. epidermidis ATCC 12228; read-out: MIC. The gist of the method: (§4)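 Susceptibility by NCCLS microdilution: checked inoculum 10^5-10^6 CFU/ml, 24 h at 35° C, and growth assessed at 650 nm and by eye. Haemophilus was tested in HTM medium and Listeria with laked horse blood, each incubated under 5% CO2.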

The test system of a further experiment is S. aureus ATCC 29213. Put plainly: Minimal Bactericidal Concentration (MBC). Conditions: Staphylococcus aureus, ATCC29213, 99.9% killing. The class given is cell-based. The gist of the method: as §1
The next experiment has as its system H. influenzae ATCC 49247. Briefly: Minimal Bactericidal Concentration (MBC). The class given is cell-based. Conditions: Haemophilus influenzae, ATCC49247, 99.9% killing. The gist of the method: as §1
For the next experiment, the system named is E. faecalis ATCC 29212. Briefly: Minimal Bactericidal Concentration (MBC). The settings on record: Enterococcus faecalis, ATCC29212, 99.9% killing. The class given is cell-based. In a few lines:
as §1

The test system of experiment [6] is S. saprophyticus ATCC 15305. Briefly: Minimal Bactericidal Concentration (MBC). Conditions: Staphylococcus saprophyticus, ATCC15305; S. saprophyticus ATCC 15305; 99.9% killing; read-out: MBC. The experiment is classed as cell-based. The gist of the method: as §1
Experiment [7] deals with S. epidermidis ATCC 12228. Briefly: Minimal Bactericidal Concentration (MBC). The experiment is classed as cell-based. Conditions: Staphylococcus epidermidis, ATCC12228, 99.9% killing. The gist of the method: as §1
A further experiment concerns H. influenzae ATCC 49766. Put plainly: Minimal Bactericidal Concentration (MBC). The experiment is classed as cell-based. Conditions: Haemophilus influenzae, ATCC49766, 99.9% killing. In a few lines: as §1
Experiment [8] relates to E. coli ATCC 25922. Briefly: Minimal Bactericidal Concentration (MBC). The experiment is classed as cell-based. The settings on record: Escherichia coli, ATCC25922, 99.9% killing. In a few lines:
as §1

For another experiment, the system named is S. aureus MRSA COL. Briefly: Minimal Bactericidal Concentration (MBC). The class given is cell-based. The settings on record: Staphylococcus aureus, 99.9% killing. The gist of the method: as §1
The next experiment deals with E. faecium ATCC 35667. Put plainly: Minimal Bactericidal Concentration (MBC). The class given is cell-based. Conditions: Enterococcus faecium, ATCC35667, 99.9% killing. The gist of the method:
as §1

The test system of experiment [9] is B. cereus, B. subtilis and B. atrophaeus. Briefly: MIC broth microdilution, Bacillus species. The experiment is classed as cell-based. Conditions: three Bacillus species (B. cereus, B. subtilis and B. atrophaeus); data not shown. Here is the method:
Minimal Inhibitory Concentration (MIC) Determination. Bacteria (primary strain panel, TABLE 1). Susceptibility tests were performed following the recommendations from the National Committee for Clinical Standards (NCCLS). The MICs were determined by a broth microdilution technique using a final volume of 100 μl of cation-adjusted Mueller Hinton Broth (MHBCA) and a bacterial inoculum of 10^5-10^6 Colony Forming Units (CFU)/ml. The inocula were verified and precisely determined by applying 10-μl drops of 10-fold dilutions onto Triptic Soy Agar plates. The CFU were counted after an incubation of 24 h at 35° C. Any experiment showing an inoculum that was more or less than 10^5-10^6 CFU/ml was rejected. Control antibiotics and test compounds were prepared at a concentration equivalent to 2-fold the highest desired final concentration. Compounds were then diluted directly in the 96-well microtiter plates by serial 2-fold dilutions using a multichannel pipette. Microtiter plates were incubated during 24 h at 35° C. and growth was recorded by using a microtiterplate reader at 650 nm as well as by visual observation. The MIC was defined as the lowest concentration of compound yielding no visible growth. […] Fastidious bacteria. The medium used for Listeria monocytogenes, Neisseria meningitidis, and Campylobacter jejuni was MHBCA containing 2% laked horse blood. […]

Another experiment deals with E. coli MC4100. Briefly: MIC broth microdilution (NCCLS). The settings on record: Escherichia coli; E. coli MC4100, pathotype Reference. The experiment is classed as cell-based. The method, then:
as §2

The subject of the next experiment is B. fragilis ATCC 25285. Briefly: MIC broth microdilution (NCCLS), anaerobic. The class given is cell-based. The settings on record: Bacteroides fragilis, ATCC25285; B. fragilis ATCC 25285; Wilkins Chalgren broth, anaerobic, 48 hours; read-out: MIC. The method, then: as §2
In experiment [10] the test system is E. coli ATCC 25922. Put plainly: MIC broth microdilution (NCCLS). The experiment is classed as cell-based, Escherichia coli.
The test system of experiment [11] is B. catarrhalis ATCC 8176. Briefly: MIC broth microdilution (NCCLS), fastidious bacteria. The experiment is classed as cell-based, Branhamella (Moraxella) catarrhalis. Conditions: Moraxella catarrhalis, ATCC8176, HTM, 5% CO2. In a few lines: as §4
[12] abbreviates: Escherichia coli, ATCC25922, E. coli ATCC 25922 (Reference), read-out: MIC.

Molecules are shown by their SMILES. Values after ≈ are worked out from the molar mass of the structure shown. Read-outs that look alike come from different tables or passages of the source.

In the case of `O=[N+]([O-])c1ccc(C=Cc2nc(Nc3ccc(O)cc3)c3cc(F)ccc3n2)o1` [Compound V, 6-fluoro-2-[2-(5-nitro-2-furyl)vinyl]-4-(p-hydroxyanilino)-quinazoline], the MBC against B. catarrhalis ATCC 8176 [1] was 0.03 µg/mL (≈ 0.0765 µM); in the experiment on S. aureus ATCC 29213, 0.06 µg/mL (≈ 0.153 µM); in the experiment with H. influenzae ATCC 49247 it was 0.06 µg/mL (≈ 0.153 µM); against E. faecalis ATCC 29212, 0.03 µg/mL (≈ 0.0765 µM); in experiment [6] it was 0.03 to 0.06 µg/mL (≈ 0.0765 to 0.153 µM); in [7] it was 0.03 µg/mL (≈ 0.0765 µM). In addition, the MBC against H. influenzae ATCC 49766 worked out at 0.06 µg/mL (≈ 0.153 µM); with E. coli ATCC 25922 [8], 0.5 µg/mL (≈ 1.27 µM); with S. aureus MRSA COL, 0.06 µg/mL (≈ 0.153 µM); in the experiment on E. faecium ATCC 35667, 0.25 µg/mL (≈ 0.637 µM). Moreover, the MIC (with S. typhimurium ATCC14028; against E. coli Ec022c (EIEC); in [2]; in [3]; in the experiment on E. coli Ec118c (EIEC); in the experiment on E. coli Ec027c (EIEC)) was 1 µg/mL (≈ 2.55 µM) each time. The MIC against E. coli Ec117c (EIEC) is 1 µg/mL (≈ 2.55 µM); in [4] it was 1 µg/mL (≈ 2.55 µM); with E. coli Ec119c (EIEC) it was 2 µg/mL (≈ 5.1 µM); in experiment [5] it was 0.03 µg/mL (≈ 0.0765 µM); in experiment [9] it was 0.03 to 0.125 µg/mL (≈ 0.0765 to 0.319 µM); with E. coli MC4100 it was 1 µg/mL (≈ 2.55 µM). The MIC with B. fragilis ATCC 25285 was determined as 0.016 µg/mL (≈ 0.0408 µM); with E. coli ATCC 25922 [10] (E. coli ATCC 25922 (Reference), listed as Example I compound V), 0.5 µg/mL (≈ 1.27 µM); with E. coli ATCC 25922 [10] (setting [12]) it was 0.5 µg/mL (≈ 1.27 µM); in the experiment with B. catarrhalis ATCC 8176 [11], 8 ng/mL (≈ 0.0204 µM).

As for `O=C1CN(/N=C/c2ccc([N+](=O)[O-])o2)C(=O)N1` [Nitrofurantoin], the MIC with S. typhimurium ATCC14028 came to 32 µg/mL (≈ 134 µM); in the experiment on E. coli Ec022c (EIEC), 16 µg/mL (≈ 67.2 µM); in experiment [2], 16 µg/mL (≈ 67.2 µM); in experiment [3], 16 µg/mL (≈ 67.2 µM); in the experiment with E. coli Ec118c (EIEC), 16 µg/mL (≈ 67.2 µM); in the experiment on E. coli Ec027c (EIEC) it was 16 µg/mL (≈ 67.2 µM). The MIC against E. coli Ec117c (EIEC) is 8 to 16 µg/mL (≈ 33.6 to 67.2 µM); in [4], 2 µg/mL (≈ 8.4 µM); against E. coli Ec119c (EIEC), 16 µg/mL (≈ 67.2 µM); in experiment [5], 16 µg/mL (≈ 67.2 µM); against E. coli MC4100, 8 to 16 µg/mL (≈ 33.6 to 67.2 µM); with E. coli ATCC 25922 [10] (E. coli ATCC 25922 (Reference)), 8 to 16 µg/mL. In the experiment with E. coli ATCC 25922 [10] (setting [12]), the MIC came to 8 µg/mL (≈ 33.6 µM).
